Data as given in patent US4868203A, “Bacterial substance and pharmaceutical composition thereof” (Kabushikikaisha Ueno Seiyaku Oyo Kenkyujo, priority 1986, dated 1989).
In brackets after ≈: the same amount, converted by molar mass.

Assays:
Type in all cases: cell-based
Bacillus subtilis 6633 = tested on: Bacillus subtilis 6633
Description: (§1) The minimum growth inhibitory concentration (MIC) values of bacterial substance UFC-N11 to various kinds of bacteria determined according to the conventional method were measured in the conventional manner.

Campylobacter jejuni = tested on: Campylobacter jejuni
Description: as §1

[1] = tested on: Corynebacterium michiganence PV michiganene NIAES 1044; conditions: Corynebacterium michiganence NIAES 1044 (bacterial canker of tomatoes)
Description: as §1

[2] = tested on: Enterobacter cloacae IID977
Description: as §1

[3] = tested on: Ervinia carotovara subsp. carotovora NIAES 1393; conditions: Ervinia carotovara NIAES 1393 (black leg of potatoes)
Description: as §1

[4] = tested on: Escherichia coli NIHJ JC-2
Description: as §1

Klebsiella pneumoniae = tested on: Klebsiella pneumoniae
Description: as §1

Proteus vulgaris OX-19 = tested on: Proteus vulgaris OX-19
Description: as §1

Pseudomonas aeruginosa = tested on: Pseudomonas aeruginosa
Description: as §1

[5] = tested on: Pseudomonas syringae PV Mori NIAES 1020; conditions: Pseudomonas syringae PV Mori NIAES 1020 (bacterial rugose)
Description: as §1

[6] = tested on: Pseudomonas syringae PV lachrymans NIAES 1316; conditions: Pseudomonas syringae PV lachrymans NIAES 1316 (angular leaf spot of cucumber)
Description: as §1

[7] = tested on: Pseudomonas syringae PV tabaci NIAES 1075
Description: as §1

[8] = tested on: Salmonella enteritidis 1891
Description: as §1

Salmonella typhimurium = tested on: Salmonella typhimurium
Description: as §1

[9] = tested on: Staphylococcus aureus 209-P
Description: as §1

[10] = tested on: Xandomonas campestris FV Pruni 7855SMR; conditions: Xandomonas campestris FV Pruni 7855SMR (bacterial spot of peach)
Description: as §1

[11] = tested on: Xandomonas campestris PV campestris NIAES 1152; conditions: Xandomonas campestris PV campestris NIAES 1152 (black rot)
Description: as §1

## CC=CC=CC=CC(=O)NC(CC(=O)NC(C(=O)C1C(=O)NC(=O)C1C)C(C)C)c1ccccc1 (centres unmarked) [UFC-N11]
Bacillus subtilis 6633
  MIC: 0.39 µg/mL (≈ 0.813 µM)
Campylobacter jejuni
  MIC: 0.78 µg/mL (≈ 1.63 µM)
[1]
  MIC: 6.25 µg/mL (≈ 13 µM)
[2]
  MIC: 25 µg/mL (≈ 52.1 µM)
[3]
  MIC: 6.25 µg/mL (≈ 13 µM)
[4]
  MIC: 1.56 µg/mL (≈ 3.25 µM)
Klebsiella pneumoniae
  MIC: 12.5 µg/mL (≈ 26.1 µM)
Proteus vulgaris OX-19
  MIC: 0.195 µg/mL (≈ 0.407 µM)
Pseudomonas aeruginosa
  MIC: 50 µg/mL (≈ 104 µM)
[5]
  MIC: 25 µg/mL (≈ 52.1 µM)
[6]
  MIC: 6.25 µg/mL (≈ 13 µM)
[7]
  MIC: 12.5 µg/mL (≈ 26.1 µM)
[8]
  MIC: 0.78 µg/mL (≈ 1.63 µM)
Salmonella typhimurium
  MIC: 6.25 µg/mL (≈ 13 µM)
[9]
  MIC: 1.56 µg/mL (≈ 3.25 µM)
[10]
  MIC: 0.1 µg/mL (≈ 0.209 µM)
[11]
  MIC: 0.1 µg/mL (≈ 0.209 µM)
